Data from patent US20060069132A1, “Azolecarboxamide herbicides” (priority 2004, published 2006).
Like-named read-outs stand apart in the source and are kept apart here.

Key:
barnyardgrass [1] = experiment: Test B pre-/postemergence herbicide test; assay type: in vivo, Echinochloa crus-galli; conditions: Echinochloa crus-galli; for pest or weed control at 125 g/ha: 125 g ai/ha; for pest or weed control at 500 g/ha: 500 g ai/ha
How it was run: (§1)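 Herbicidal effect was judged by eye on a 0–100 scale after plants stood 13 to 15 days in the greenhouse following pre- or postemergence treatment with surfactant-containing formulations.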

Surinam grass = experiment: Test B pre-/postemergence herbicide test; assay type: in vivo, Urochloa decumbens; conditions: Urochloa decumbens; for pest or weed control at 125 g/ha: 125 g ai/ha; for pest or weed control at 500 g/ha: 500 g ai/ha
How it was run: (§2)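 Evaluation is visual, comparing treated with control plants on a scale where 0 means no effect and 100 means full control. Treatments were preemergence, or postemergence on seedlings 2–18 cm tall, and held 13–15 days in the greenhouse.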

cocklebur = experiment: Test B pre-/postemergence herbicide test; assay type: in vivo, Xanthium strumarium; conditions: Xanthium strumarium; for pest or weed control at 125 g/ha: 125 g ai/ha; for pest or weed control at 500 g/ha: 500 g ai/ha
How it was run: as §1

corn = experiment: Test B pre-/postemergence herbicide test; assay type: in vivo, Zea mays; conditions: Zea mays
How it was run: as §2

large crabgrass = experiment: Test B pre-/postemergence herbicide test; assay type: in vivo, Digitaria sanguinalis; conditions: Digitaria sanguinalis; for pest or weed control at 125 g/ha: 125 g ai/ha; for pest or weed control at 500 g/ha: 500 g ai/ha
How it was run: as §2

giant foxtail = experiment: Test B pre-/postemergence herbicide test; assay type: in vivo, Setaria faberi; conditions: Setaria faberi, 336 h; for pest or weed control at 125 g/ha: 125 g ai/ha; for pest or weed control at 500 g/ha: 500 g ai/ha
How it was run: as §2

lambsquarters = experiment: Test B pre-/postemergence herbicide test; assay type: in vivo, Chenopodium album; conditions: Chenopodium album, 336 h; for pest or weed control at 125 g/ha: 125 g ai/ha; for pest or weed control at 500 g/ha: 500 g ai/ha
How it was run: as §2

morningglory = experiment: Test B pre-/postemergence herbicide test; assay type: in vivo, Ipomoea coccinea; conditions: Ipomoea, 336 h; for pest or weed control at 125 g/ha: 125 g ai/ha; for pest or weed control at 500 g/ha: 500 g ai/ha
How it was run: as §1

velvetleaf = experiment: Test B pre-/postemergence herbicide test; assay type: in vivo, Abutilon theophrasti; conditions: Abutilon theophrasti, 336 h; for pest or weed control at 125 g/ha: 125 g ai/ha; for pest or weed control at 500 g/ha: 500 g ai/ha
How it was run: as §2

blackgrass = experiment: Test B postemergence herbicide test; assay type: in vivo, Alopecurus myosuroides; conditions: Alopecurus myosuroides, post-emergence, 336 h, postemergence, visual rating, scale 0 (no effect) to 100 (complete control), read-out: Blackgrass plant response rating
How it was run: (§3)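 Treated at 2-leaf (paddy) or 1–4-leaf, 2–18 cm (postemergence); greenhouse 13–15 d; visual score vs control, 0 none to 100 complete control; dash = not tested.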

wheat = experiment: Test B postemergence herbicide test; assay type: in vivo, Triticum aestivum; conditions: Triticum aestivum, post-emergence, 336 h, postemergence, 500 g ai/ha; visual rating, scale 0 (no effect) to 100 (complete control); read-out: Wheat plant response rating
How it was run: as §3

rice = experiment: Test B flooded paddy test; assay type: in vivo, Oryza sativa; conditions: Oryza sativa, 336 h, 1000 g ai/ha, visual rating, scale 0 to 100 (0 no effect, 100 complete control), 13 to 15 days, read-out: Rice plant response rating
How it was run: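 Each value is a visual 0–100 response rating taken against controls 13 to 15 days after treatment in the greenhouse. Plants received formulated chemical postemergence at the 1- to 4-leaf stage or, in flooded paddy, at the 2-leaf stage.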

[2] = system: small flower umbrella sedge; experiment: Test B flooded paddy test; assay type: in vivo, Cyperus difformis; conditions: Cyperus difformis, 336 h, 1000 g ai/ha, visual rating, scale 0 to 100 (0 no effect, 100 complete control), 13 to 15 days, read-out: Sedge, Umbrella plant response rating
How it was run: as §3

ducksalad = experiment: Test B flooded paddy test; assay type: in vivo, Heteranthera limosa; conditions: Heteranthera limosa, 336 h, 1000 g ai/ha, visual rating, scale 0 to 100 (0 no effect, 100 complete control), 13 to 15 days, read-out: Ducksalad plant response rating
How it was run: as §3

barnyardgrass [3] = experiment: Test B flooded paddy test; assay type: in vivo, Echinochloa crus-galli; conditions: Echinochloa crus-galli, 336 h, 1000 g ai/ha, visual rating, scale 0 to 100 (0 no effect, 100 complete control), 13 to 15 days, read-out: Barnyardgrass plant response rating
How it was run: as §3

[4] = post-emergence, postemergence, visual rating, scale 0 (no effect) to 100 (complete control), read-out: Barnyardgrass plant response rating
[5] = post-emergence, postemergence, visual rating, scale 0 (no effect) to 100 (complete control), read-out: Surinam Grass plant response rating
[6] = post-emergence, postemergence, visual rating, scale 0 (no effect) to 100 (complete control), read-out: Cocklebur plant response rating
[7] = post-emergence, postemergence, visual rating, scale 0 (no effect) to 100 (complete control), read-out: Crabgrass, Large plant response rating
[8] = post-emergence, postemergence, visual rating, scale 0 (no effect) to 100 (complete control), read-out: Foxtail, Giant plant response rating
[9] = post-emergence, postemergence, visual rating, scale 0 (no effect) to 100 (complete control), read-out: Lambsquarters plant response rating
[10] = post-emergence, postemergence, visual rating, scale 0 (no effect) to 100 (complete control), read-out: Morningglory plant response rating
[11] = post-emergence, postemergence, visual rating, scale 0 (no effect) to 100 (complete control), read-out: Velvetleaf plant response rating

`CCn1nc(C(C)(C)C)cc1C(=O)Nc1cccc(C(=O)OC)n1` [Compound 143, methyl 6-[[[3-(1,1-dimethylethyl)-1-ethyl-1H-pyrazol-5-yl]carbonyl]amino]-2-pyridinecarboxylate] was tested, and the pest or weed control at 125 g/ha (barnyardgrass [1]; [4]) was 0%, the pest or weed control at 500 g/ha (barnyardgrass [1]; [4]) was 0% and the pest or weed control at 500 g/ha (barnyardgrass [1]; pre-emergence, visual rating 0-100, 0 no effect, 100 complete control, read-out: Plant response rating, Barnyardgrass) was 0%. For the same compound, the pest or weed control at 125 g/ha (barnyardgrass [1]; pre-emergence, preemergence, 0 to 100 scale, 0 is no effect, 100 is complete control, read-out: Plant response rating, Barnyardgrass) was 0%, the pest or weed control at 125 g/ha (Surinam grass; [5]) was 10% and the pest or weed control at 500 g/ha (Surinam grass; [5]) was 10%. The pest or weed control at 500 g/ha (Surinam grass; pre-emergence, visual rating 0-100, 0 no effect, 100 complete control, read-out: Plant response rating, Surinam Grass) was 0%, the pest or weed control at 125 g/ha (Surinam grass; pre-emergence, preemergence, 0 to 100 scale, 0 is no effect, 100 is complete control, read-out: Plant response rating, Surinam Grass) was 0% and the pest or weed control at 125 g/ha (cocklebur; [6]) was 0%. It also gave a pest or weed control at 500 g/ha (cocklebur; [6]) of 0%, a pest or weed control at 500 g/ha (cocklebur; pre-emergence, visual rating 0-100, 0 no effect, 100 complete control, read-out: Plant response rating, Cocklebur) of 0% and a pest or weed control at 125 g/ha (cocklebur; pre-emergence, preemergence, 0 to 100 scale, 0 is no effect, 100 is complete control, read-out: Plant response rating, Cocklebur) of 0%. For the same compound, the plant injury at 125 g/ha (corn; post-emergence, postemergence, 125 g ai/ha, visual rating, scale 0 (no effect) to 100 (complete control), read-out: Corn plant response rating) was 0%, the plant injury at 500 g/ha (corn; post-emergence, postemergence, 500 g ai/ha, visual rating, scale 0 (no effect) to 100 (complete control), read-out: Corn plant response rating) was 10% and the Corn plant response rating (crop injury, 0 = no effect, 100 = complete kill) at 500 g/ha (corn; pre-emergence, 500 g ai/ha, visual rating 0-100, 0 no effect, 100 complete control) was 0%. It also gave a Corn plant response rating (crop injury, 0 = no effect, 100 = complete kill) at 125 g/ha (corn; pre-emergence, preemergence, 125 g ai/ha, 0 to 100 scale, 0 is no effect, 100 is complete control) of 0%, a pest or weed control at 125 g/ha (large crabgrass; [7]) of 0% and a pest or weed control at 500 g/ha (large crabgrass; [7]) of 0%. For the same compound, the pest or weed control at 500 g/ha (large crabgrass; pre-emergence, visual rating 0-100, 0 no effect, 100 complete control, read-out: Plant response rating, Crabgrass, Large) was 0%, the pest or weed control at 125 g/ha (large crabgrass; pre-emergence, preemergence, 0 to 100 scale, 0 is no effect, 100 is complete control, read-out: Plant response rating, Crabgrass, Large) was 0% and the pest or weed control at 125 g/ha (giant foxtail; [8]) was 0%. For the same compound, the pest or weed control at 500 g/ha (giant foxtail; [8]) was 0%, the pest or weed control at 500 g/ha (giant foxtail; pre-emergence, visual rating 0-100, 0 no effect, 100 complete control, read-out: Plant response rating, Foxtail, Giant) was 0% and the pest or weed control at 125 g/ha (giant foxtail; pre-emergence, preemergence, 0 to 100 scale, 0 is no effect, 100 is complete control, read-out: Plant response rating, Foxtail, Giant) was 0%. The pest or weed control at 125 g/ha (lambsquarters; [9]) was 0%, the pest or weed control at 500 g/ha (lambsquarters; [9]) was 20% and the pest or weed control at 500 g/ha (lambsquarters; pre-emergence, visual rating 0-100, 0 no effect, 100 complete control, read-out: Plant response rating, Lambsquarters) was 0%. For the same compound, the pest or weed control at 125 g/ha (lambsquarters; pre-emergence, preemergence, 0 to 100 scale, 0 is no effect, 100 is complete control, read-out: Plant response rating, Lambsquarters) was 0%, the pest or weed control at 125 g/ha (morningglory; [10]) was 0% and the pest or weed control at 500 g/ha (morningglory; [10]) was 0%. For the same compound, the pest or weed control at 500 g/ha (morningglory; pre-emergence, visual rating 0-100, 0 no effect, 100 complete control, read-out: Plant response rating, Morningglory) was 0%, the pest or weed control at 125 g/ha (morningglory; pre-emergence, preemergence, 0 to 100 scale, 0 is no effect, 100 is complete control, read-out: Plant response rating, Morningglory) was 0% and the pest or weed control at 125 g/ha (velvetleaf; [11]) was 0%. It also gave a pest or weed control at 500 g/ha (velvetleaf; [11]) of 20%, a pest or weed control at 500 g/ha (velvetleaf; pre-emergence, visual rating 0-100, 0 no effect, 100 complete control, read-out: Plant response rating, Velvetleaf) of 0% and a pest or weed control at 125 g/ha (velvetleaf; pre-emergence, preemergence, 0 to 100 scale, 0 is no effect, 100 is complete control, read-out: Plant response rating, Velvetleaf) of 0%. For the same compound, the pest or weed control at 125 g/ha (blackgrass; 125 g ai/ha) was 0%, the pest or weed control at 500 g/ha (blackgrass; 500 g ai/ha) was 0% and the plant injury at 500 g/ha (wheat) was 0%. The plant injury at 1000 g/ha (rice) was 0%, the pest or weed control at 1000 g/ha [2] was 0% and the pest or weed control at 1000 g/ha (ducksalad) was 0%. It also gave a pest or weed control at 1000 g/ha (barnyardgrass [3]) of 0%.
